{
  "source": "patent US9248202B2",
  "about": "“Two-photon probe for detecting copper(II) ion and quantitative estimation of copper(II) ion in human tissue using the same” (Korea University Research and Business Foundation, priority 2014, dated 2016)",
  "key": {"human colon tissue": {"test_system": "human colon tissue", "assay": "Quantitative estimation of copper(II) ion in human colon tissue by TPM", "details": "for average Ired/Iblue ratio: 20 μM ACCu2", "from_the_text": "Colon slices were obtained from outpatients who underwent elective colonoscopies at the Korea University Medical Center Anam Hospital. The volunteers were recruited to participate in the experiment, which was approved by the hospital ethics committee, and all the participating patients provided informed consents. The patients who had known or suspected bleeding disorders, an international normalized ratio of prothrombin time exceeding 1.4 a platelet count of <100,000 or who had taken aspirin within the previous 5 days were excluded.\nDuring the colonoscopy examination, tissues were obtained from malignant lesions, adenomas and normal mucosa by biopsy forceps. Normal colon mucosal and adenoma or adenocarcinoma tissues were collected from the same patient. Standard biopsy forceps (Olympus Medical Systems Corporation, Tokyo, Japan) were used to obtain paired mucosal pinch biopsy specimens from the colon. 28, 10 and 6 tissue samples were acquired from normal, polyp and cancer tissues, respectively. The tissues were placed in sterile specimen bottles containing PBS. Half of the normal tissue samples were treated with EDTA (1 M) for 40 minutes. Then, the tissue samples were stained with 20 μM ACCu2 in artificial spinal fluid for 1-2 hours at 37.8° C. and then imaged.\nAs a result, clinical important images were obtained at depths of 90-190 μm in the mucosal and submucosal layers, as shown in FIG. 11(a)."}, "rat brain tissue": {"test_system": "rat brain tissue", "assay": "Quantitative estimation of copper(II) ion in rat brain tissue slices by TPM", "method": "Slices were prepared from the hippocampi and hypothalami of 2-day-old Sprague-Dawley (SD) rats. Coronal slices were cut into 400 μm thickness using a vibrating-blade microtome in artificial cerebrospinal fluid (ACSF; 138.6 mM NaCl, 3.5 mM KCl, 21 mM NaHCO3, 0.6 mM NaH2PO4, 9.9 mM D-glucose, 1 mM CaCl2 and 3 mM MgCl2). The slices were incubated with 20 μM ACCu2 in ACSF bubbled with 95% O2 and 5% CO2 for 30 minutes at 37° C. The slices were e then washed 3 times with ACSF, transferred to glass-bottomed dishes (MatTek) and observed with spectral confocal and rnultiphoton microscopy.\nBecause the structure of the brain tissue is heterogeneous, TPM images were acquired at depths of 90-190 μm to visualize the overall copper(II) on distribution."}, "HeLa cells": {"test_system": "HeLa cells", "assay": "Cell viability, CCK-8 kit", "assay_type": "cell-based, human", "details": "various ACCu2 concentrations", "method": "HeLa human cervical carcinoma cells were acquired from the ATCC (Manassas, Va., USA). The cells were cultured in DMEM (WelGene, Inc., Seoul, Korea) supplemented with heat-inactivated 10% FBS (WelGene), penicillin (100 units/mL) and streptomycin ([…]), All the cell lines were maintained in a humidified atmosphere of 5% CO2 and 95% air at 37° C. Two days before imaging, the cells were moved and plated onto glass-bottomed dishes (MatTek), For labeling, the growth medium was removed and replaced with FBS-free DMEM. The cells were incubated with 3 μM ACCu2 for 20 minutes at 37° C., washed 3 times with FBS-free DMEM and imaged.\nThe viability of HeLa cells with the ACCu2 concentration was measured under the incubation condition using the CCK-8 kit (Cell Counting Kit-8, Dojindo, Japan) (FIG. 7). […] Accordingly, it can be seen that the copper(II) ion concentration in living cells can be measured with minimum interference from cytotoxicity."}, "[1]": {"assay": "Two-photon action cross section", "assay_type": "physicochemical", "details": "at 880 nm, EtOH/HEPES (9/1 v/v, pH 7.0)", "method": "Referring to FIG. 4(a), the Φδmax value of ACCu2 in EtOH/HEPES (9/1 v/v, pH 7.0) buffer was 32 GM at 880 nm, while those for FL and IR were 32 GM at 880 nm and 46 GM at 750 nm. The lower Φδmax value of ACCu2 at 750 nm than that of IR is because of decreased fluorescence resonance energy transfer (FRET) from IR to FL and it allows to obtain bright TPM images of cells and ^.tissues labeled with ACCu2.\nThe two-photon cross section (δ) was determined by the fe tosecond (fs) fluorescence measurement technique described in the literature (S. K. Lee, W. J. Yang, J. J. Choi, C. H. Kim, S.-J. Jeon, B. R. Cho, Org. Lett 2005, 7, 323-326.), ACCu2 was dissolved in 20 mM HEPES buffer (pH 7.0) to a concentration of 3.0×10^−6 M and then two-photon induced fluorescence intensity was measured at 740-940 nm using rhodamine 6G as a reference, whose two-photon property has been well characterized. The intensities of two-photon induced fluorescence of the reference and the sample were determined at the same excitation wavelength.\nThe two-photon cross section can be calculated from equation (3). δ=δr(SsΦrΦrcr)/(SrΦsΦscs) Equation (3)\nwherein s and r stand for the sample, i.e., ACCu2, and the reference, respectively. S denotes the intensity of the signal collected using a CCD detector, Φ is the fluorescence quantum yield, Φ is the overall fluorescence collection efficiency of the experimental apparatus, c is the number density of molecules in solution, and δr is the two-photon cross section of the reference molecule."}, "[2]": {"details": "EDTA-treated normal colon tissue"}, "[3]": {"details": "rat brain tissue, after copper(II) ion (500 μM) and PDTC (200 μM)"}},
  "data": [
    {"smiles": "COCCOCCOCCOc1ccc2c(ccc3cc(C(=O)N4CCN(C(=O)c5ccc(CNC(=O)c6cc7cc8ccc(N(C)C)cc8cc7oc6=O)nc5)CC4)c(=O)oc32)c1", "note": "[ACCu2]", "values": [
      {"measurement": "copper(II) ion concentration", "setting": "human colon tissue; [2]", "result": "0.0 ± 0.1", "unit": "µM"},
      {"measurement": "average Ired/Iblue ratio", "setting": "human colon tissue; [2]", "result": "10.0±0.3"},
      {"measurement": "copper(II) ion concentration", "setting": "human colon tissue; cancer colon tissue", "result": "22 ± 3", "unit": "µM"},
      {"measurement": "average Ired/Iblue ratio", "setting": "human colon tissue; cancer colon tissue", "result": "5.2±0.6"},
      {"measurement": "copper(II) ion concentration", "setting": "human colon tissue; normal colon tissue", "result": "8.2 ± 0.3", "unit": "µM"},
      {"measurement": "average Ired/Iblue ratio", "setting": "human colon tissue; normal colon tissue", "result": "8.3±0.4"},
      {"measurement": "copper(II) ion concentration", "setting": "human colon tissue; polyp colon tissue", "result": "13 ± 2", "unit": "µM"},
      {"measurement": "average Ired/Iblue ratio", "setting": "human colon tissue; polyp colon tissue", "result": "7.2±0.5"},
      {"measurement": "Ired/Iblue ratio", "setting": "rat brain tissue; ACCu2 (20 μM)-labeled rat brain tissue, untreated", "result": "9.9±0.5"},
      {"measurement": "Ired/Iblue ratio", "setting": "rat brain tissue; [3]", "result": "6.8±0.6"},
      {"measurement": "free copper ion concentration", "setting": "rat brain tissue; [3]", "result": "14 ± 1.5", "unit": "µM"},
      {"measurement": "free copper(II) ion concentration", "setting": "rat brain tissue; rat brain tissue, untreated", "result": "0.0 ± 1.1", "unit": "µM"},
      {"measurement": "viability of HeLa cells", "setting": "HeLa cells", "result": "did not affect the viability of HeLa cells"},
      {"measurement": "Φδmax (two-photon action cross section)", "setting": "[1]", "result": 32, "unit": "GM"}
    ]}
  ]
}
